Measured values published in patent US8247211B2, “Glycopeptide antibiotics” (American Cyanamid Company, priority 2001, dated 2012).
Converted amounts (≈) assume the structure as drawn.

What was measured:
Experiment in all cases: In vitro antibacterial evaluation: minimum inhibitory concentration (MIC), broth dilution method
Type in all cases: cell-based
[1] = system: Staphylococcus sp.; conditions: for MIC Staphylococcus aureus (ATCC 29213): strain ATCC 29213; for MIC Staphylococcus aureus (GC 1131): strain GC 1131; for MIC Staphylococcus aureus (GC 3051): strain GC 3051; for MIC Staphylococcus aureus (GC 3053): strain GC 3053; for MIC Staphylococcus aureus (GC 4541): strain GC 4541; for MIC Staphylococcus aureus (GC 4542): strain GC 4542; for MIC Staphylococcus aureus-SMITH (GC 4543): strain GC 4543; for MIC Staphylococcus aureus (GC 4544): strain GC 4544; for MIC Staphylococcus aureus (GC 4545): strain GC 4545; for MIC Staphylococcus haemolyticus (GC 4546): strain GC 4546; for MIC Coagulase Negative Staphylococcus (GC 4547): strain GC 4547; for MIC Coagulase Negative Staphylococcus (GC 4548): strain GC 4548; for MIC Coagulase Negative Staphylococcus (GC 4549): strain GC 4549; for MIC Coagulase Negative Staphylococcus (GC 4551): strain GC 4551; for MIC Coagulase Negative Staphylococcus (GC 6257): strain GC 6257
Description: (§1) The minimum inhibitory concentration (MIC), the lowest concentration of the antibiotic which inhibits growth of the test organism, is determined by the broth dilution method using Muller-Hinton II […] (Baltimore Biological Laboratories) following the recommendations of the National Committee for Clinical Laboratory Standards [Methods for dilution antimicrobial susceptibility tests for bacteria that grow aerobically, approved standard M7-A2, National Committee for Clinical Laboratory Standards, Villanova, Pa].
(§2) An inoculum level of 5×10^5 CFU/mL, and a range of antibiotic concentrations (64-0.06 μg/mL) is used. […] The test organisms include a spectrum of Gram-positive bacteria comprised of Staphylococcus sp., Streptococcus sp. and Enterococcus sp. These organisms include recent clinical isolates that are resistant to methicillin, penicillin and/or vancomycin.

[2] = system: Enterococcus sp.; conditions: broth dilution, 5×10^5 CFU/mL, 18 hours at 35° C.
Description: as §1, §2

[3] = system: Streptococcus sp.; conditions: broth dilution, 5×10^5 CFU/mL, 18 hours at 35° C.
Description: as §1, §2

[4] = system: Escherichia coli; conditions: 5×10^5 CFU/mL, 18 hours at 35° C.
Description: as §1, §2

[5] = broth dilution, 18 hours at 35° C.

SMILES: CC(C)=CCCC1OCC2OC(OC3C(CO)OC(Oc4ccc(CC5NC(=O)C(C(C)c6ccccc6)NC(=O)CNC(=O)C(CO)NC(=O)C(C(O)C6CNC(=N)N6C6OC(CO)C(O)C(O)C6O)NC(=O)C(C(O)C6CNC(=N)N6)NC5=O)cc4)C(O)C3O)C(O)C(O)C2O1 (stereo not drawn) [Example 123, Cyclo[glycyl-β-methylphenylalanyl-O-[4-O-[4,6-O-[5-methylhex-4-en-1-ylidene)hexopyranosyl]hexopyranosyl]tyrosyl-3-[2-iminoimidazolidin-4-yl)seryl-3-(3-hexopyranosyl-2-iminoimidazolidin-4-yl)serylseryl]]
- MIC Staphylococcus aureus (ATCC 29213) [1]: 8 µg/mL (≈ 5.76 µM)
- MIC Staphylococcus aureus (ATCC 29213) [1, 5]: 8 µg/mL (≈ 5.76 µM)
- MIC Staphylococcus aureus (GC 1131) [1]: 8 µg/mL (≈ 5.76 µM)
- MIC Staphylococcus aureus (GC 1131) [1, 5]: 8 µg/mL (≈ 5.76 µM)
- MIC Staphylococcus aureus (GC 3051) [1]: 8 µg/mL (≈ 5.76 µM)
- MIC Staphylococcus aureus (GC 3051) [1, 5]: 8 µg/mL (≈ 5.76 µM)
- MIC Staphylococcus aureus (GC 3053) [1]: 8 µg/mL (≈ 5.76 µM)
- MIC Staphylococcus aureus (GC 3053) [1, 5]: 8 µg/mL (≈ 5.76 µM)
- MIC Staphylococcus aureus (GC 4541) [1]: 4 µg/mL (≈ 2.88 µM)
- MIC Staphylococcus aureus (GC 4541) [1, 5]: 4 µg/mL (≈ 2.88 µM)
- MIC Staphylococcus aureus (GC 4542) [1]: 4 µg/mL (≈ 2.88 µM)
- MIC Staphylococcus aureus (GC 4542) [1, 5]: 4 µg/mL (≈ 2.88 µM)
- MIC Staphylococcus aureus-SMITH (GC 4543) ([1]; 18 hours at 35° C.): 4 µg/mL (≈ 2.88 µM)
- MIC Staphylococcus aureus-SMITH (GC 4543) [1, 5]: 4 µg/mL (≈ 2.88 µM)
- MIC Staphylococcus aureus (GC 4544) [1]: 8 µg/mL (≈ 5.76 µM)
- MIC Staphylococcus aureus (GC 4544) [1, 5]: 8 µg/mL (≈ 5.76 µM)
- MIC Staphylococcus aureus (GC 4545) [1]: 8 µg/mL (≈ 5.76 µM)
- MIC Staphylococcus aureus (GC 4545) [1, 5]: 8 µg/mL (≈ 5.76 µM)
- MIC Staphylococcus haemolyticus (GC 4546) [1]: 8 µg/mL (≈ 5.76 µM)
- MIC Staphylococcus haemolyticus (GC 4546) [1, 5]: 8 µg/mL (≈ 5.76 µM)
- MIC Coagulase Negative Staphylococcus (GC 4547) [1]: 8 µg/mL (≈ 5.76 µM)
- MIC Coagulase Negative Staphylococcus (GC 4547) [1, 5]: 8 µg/mL (≈ 5.76 µM)
- MIC Coagulase Negative Staphylococcus (GC 4548) [1]: 4 µg/mL (≈ 2.88 µM)
- MIC Coagulase Negative Staphylococcus (GC 4548) [1, 5]: 4 µg/mL (≈ 2.88 µM)
- MIC Coagulase Negative Staphylococcus (GC 4549) [1]: 4 µg/mL (≈ 2.88 µM)
- MIC Coagulase Negative Staphylococcus (GC 4549) [1, 5]: 4 µg/mL (≈ 2.88 µM)
- MIC Coagulase Negative Staphylococcus (GC 4551) [1]: 8 µg/mL (≈ 5.76 µM)
- MIC Coagulase Negative Staphylococcus (GC 4551) [1, 5]: 8 µg/mL (≈ 5.76 µM)
- MIC Coagulase Negative Staphylococcus (GC 6257) [1]: 4 µg/mL (≈ 2.88 µM)
- MIC Coagulase Negative Staphylococcus (GC 6257) [1, 5]: 4 µg/mL (≈ 2.88 µM)
- MIC Enterococccus avium (GC 4558) [2]: 16 µg/mL (≈ 11.5 µM)
- MIC Enterococccus faecalis (ATCC 29212) [2]: 8 µg/mL (≈ 5.76 µM)
- MIC Enterococccus faecalis (GC 2691) [2]: 16 µg/mL (≈ 11.5 µM)
- MIC Enterococccus faecalis (GC 3059) [2]: 16 µg/mL (≈ 11.5 µM)
- MIC Enterococccus faecalis (GC 4552) [2]: 8 µg/mL (≈ 5.76 µM)
- MIC Enterococccus faecalis (GC 4553) [2]: 16 µg/mL (≈ 11.5 µM)
- MIC Enterococccus faecalis (GC 4554) [2]: 16 µg/mL (≈ 11.5 µM)
- MIC Enterococccus faecalis (GC 6189) [2]: 8 µg/mL (≈ 5.76 µM)
- MIC Enterococccus faecium (GC 2243) [2]: 8 µg/mL (≈ 5.76 µM)
- MIC Enterococccus faecium (GC 4556) [2]: 8 µg/mL (≈ 5.76 µM)
- MIC Enterococccus faecium (GC 4557) [2]: 8 µg/mL (≈ 5.76 µM)
- MIC Enterococcus faecalis (GC 2242) [2]: 8 µg/mL (≈ 5.76 µM)
- MIC Streptococcus agalactiae (GC 4564) [3]: 2 µg/mL (≈ 1.44 µM)
- MIC Streptococcus pneumoniae (GC 1894) [3]: 1 µg/mL (≈ 0.72 µM)
- MIC Streptococcus pneumoniae (GC 4565) [3]: 2 µg/mL (≈ 1.44 µM)
- MIC Streptococcus pneumonine (ATCC 6301) [3]: 1 µg/mL (≈ 0.72 µM)
- MIC Streptococcus pyogenes (GC 4563) [3]: 0.5 µg/mL (≈ 0.36 µM)
- MIC Escherichia coli (ATCC 25922) [4]: >64 µg/mL
- MIC Escherichia coli (GC 4559) [4]: >64 µg/mL
- MIC Escherichia coli (GC 4560) [4]: 8 µg/mL (≈ 5.76 µM)

SMILES: CC(c1ccccc1)C1NC(=O)CNC(=O)C(CO)NC(=O)C(C(O)C2CNC(=N)N2C2OC(CO)C(O)C(O)C2O)NC(=O)C(C(O)C2CNC(=N)N2)NC(=O)C(Cc2ccc(OC3OC(CO)C(OC4OC5COC(CCc6ccccc6)OC5C(O)C4O)C(O)C3O)cc2)NC1=O (stereo not shown) [Example 124]
- MIC Staphylococcus aureus (ATCC 29213) [1]: 2 µg/mL (≈ 1.42 µM)
- MIC Staphylococcus aureus (ATCC 29213) [1, 5]: 2 µg/mL (≈ 1.42 µM)
- MIC Staphylococcus aureus (GC 1131) [1]: 2 µg/mL (≈ 1.42 µM)
- MIC Staphylococcus aureus (GC 1131) [1, 5]: 2 µg/mL (≈ 1.42 µM)
- MIC Staphylococcus aureus (GC 3051) [1]: 2 µg/mL (≈ 1.42 µM)
- MIC Staphylococcus aureus (GC 3051) [1, 5]: 2 µg/mL (≈ 1.42 µM)
- MIC Staphylococcus aureus (GC 3053) [1]: 2 µg/mL (≈ 1.42 µM)
- MIC Staphylococcus aureus (GC 3053) [1, 5]: 2 µg/mL (≈ 1.42 µM)
- MIC Staphylococcus aureus (GC 4541) [1]: 2 µg/mL (≈ 1.42 µM)
- MIC Staphylococcus aureus (GC 4541) [1, 5]: 2 µg/mL (≈ 1.42 µM)
- MIC Staphylococcus aureus (GC 4542) [1]: 1 µg/mL (≈ 0.708 µM)
- MIC Staphylococcus aureus (GC 4542) [1, 5]: 1 µg/mL (≈ 0.708 µM)
- MIC Staphylococcus aureus-SMITH (GC 4543) ([1]; 18 hours at 35° C.): 2 µg/mL (≈ 1.42 µM)
- MIC Staphylococcus aureus-SMITH (GC 4543) [1, 5]: 2 µg/mL (≈ 1.42 µM)
- MIC Staphylococcus aureus (GC 4544) [1]: 2 µg/mL (≈ 1.42 µM)
- MIC Staphylococcus aureus (GC 4544) [1, 5]: 2 µg/mL (≈ 1.42 µM)
- MIC Staphylococcus aureus (GC 4545) [1]: 2 µg/mL (≈ 1.42 µM)
- MIC Staphylococcus aureus (GC 4545) [1, 5]: 2 µg/mL (≈ 1.42 µM)
- MIC Staphylococcus haemolyticus (GC 4546) [1]: 2 µg/mL (≈ 1.42 µM)
- MIC Staphylococcus haemolyticus (GC 4546) [1, 5]: 2 µg/mL (≈ 1.42 µM)
- MIC Coagulase Negative Staphylococcus (GC 4547) [1]: 2 µg/mL (≈ 1.42 µM)
- MIC Coagulase Negative Staphylococcus (GC 4547) [1, 5]: 2 µg/mL (≈ 1.42 µM)
- MIC Coagulase Negative Staphylococcus (GC 4548) [1]: 1 µg/mL (≈ 0.708 µM)
- MIC Coagulase Negative Staphylococcus (GC 4548) [1, 5]: 1 µg/mL (≈ 0.708 µM)
- MIC Coagulase Negative Staphylococcus (GC 4549) [1]: 1 µg/mL (≈ 0.708 µM)
- MIC Coagulase Negative Staphylococcus (GC 4549) [1, 5]: 1 µg/mL (≈ 0.708 µM)
- MIC Coagulase Negative Staphylococcus (GC 4551) [1]: 2 µg/mL (≈ 1.42 µM)
- MIC Coagulase Negative Staphylococcus (GC 4551) [1, 5]: 2 µg/mL (≈ 1.42 µM)
- MIC Coagulase Negative Staphylococcus (GC 6257) [1]: 1 µg/mL (≈ 0.708 µM)
- MIC Coagulase Negative Staphylococcus (GC 6257) [1, 5]: 1 µg/mL (≈ 0.708 µM)
- MIC Enterococccus avium (GC 4558) [2]: 0.25 µg/mL (≈ 0.177 µM)
- MIC Enterococccus faecalis (ATCC 29212) [2]: 4 µg/mL (≈ 2.83 µM)
- MIC Enterococccus faecalis (GC 2691) [2]: 4 µg/mL (≈ 2.83 µM)
- MIC Enterococccus faecalis (GC 3059) [2]: 4 µg/mL (≈ 2.83 µM)
- MIC Enterococccus faecalis (GC 4552) [2]: 4 µg/mL (≈ 2.83 µM)
- MIC Enterococccus faecalis (GC 4553) [2]: 4 µg/mL (≈ 2.83 µM)
- MIC Enterococccus faecalis (GC 4554) [2]: 4 µg/mL (≈ 2.83 µM)
- MIC Enterococccus faecalis (GC 6189) [2]: 4 µg/mL (≈ 2.83 µM)
- MIC Enterococccus faecium (GC 2243) [2]: 4 µg/mL (≈ 2.83 µM)
- MIC Enterococccus faecium (GC 4556) [2]: 4 µg/mL (≈ 2.83 µM)
- MIC Enterococccus faecium (GC 4557) [2]: 1 µg/mL (≈ 0.708 µM)
- MIC Enterococcus faecalis (GC 2242) [2]: 4 µg/mL (≈ 2.83 µM)
- MIC Streptococcus agalactiae (GC 4564) [3]: 1 µg/mL (≈ 0.708 µM)
- MIC Streptococcus pneumoniae (GC 1894) [3]: <0.06 µg/mL
- MIC Streptococcus pneumoniae (GC 4565) [3]: <0.06 µg/mL
- MIC Streptococcus pneumonine (ATCC 6301) [3]: <0.06 µg/mL
- MIC Streptococcus pyogenes (GC 4563) [3]: 0.12 µg/mL (≈ 0.085 µM)
- MIC Escherichia coli (ATCC 25922) [4]: 32 µg/mL (≈ 22.7 µM)
- MIC Escherichia coli (GC 4559) [4]: 32 µg/mL (≈ 22.7 µM)
- MIC Escherichia coli (GC 4560) [4]: 1 µg/mL (≈ 0.708 µM)
